# Where a SMILES comes first, the peptide text is derived from it. Bridges are numbered along the chain shown (N, C = ends).
# Columns and labels:
# [1] = test system: trypsin; assay: Protease stability, RP-HPLC analysis of degradation; format: in vitro ADME
# Procedure: To further examine the stability of TIH3F incubated with enzymes (trypsin and protease K) over time, the LC analysis of peptide degradation over a series of time spans (0, 6, 12, 24 h) was performed. TIH3F and protease solution were prepared in 0.1 M NH4HCO3 buffer (pH 8.2) to final molar ratio of 300:1, and incubated at 37 °C for 6, 12, and 24 h, respectively. Then 150 μL aliquots were taken at given time intervals, diluted with 150 μL of water/acetonitrile (60/40 v/v) containing 2% TFA, and analyzed by RP-HPLC (Thermo Scientific Syncronis C18 column, 250 mm × 4.6 mm, 5 μm), eluted with acetonitrile/water (containing 0.1% TFA) mixture of linear gradient concentration.
# [2] = test system: trypsin or proteinase K; conditions: peptide:protease 300/1 mol/mol, 30 min, 37 °C, then 1 × MIC 2 h with E. coli, S. aureus, C. albicans; colony counting; Fig. 3E
# [3] = test system: E. coli ATCC25922; assay: Thermal stability of antimicrobial activity; format: physicochemical; conditions: 2 mg/mL in water, up to 96 h, E. coli ATCC25922, 1 × MIC, Fig. 3D
# Procedure: Thermal stability of Hc-3 and hybrid peptides was examined according to the method described in our previous work[31]. Peptide was dissolved in sterile deionized water to a final concentration of 2 mg/mL, and incubated at 37 °C for 0–96 h. At each time point, the bacteria colonies of E. coli ATCC25922 survived 1 × MIC were measured.
# [4] = test system: E. coli; assay: pH stability of antimicrobial activity; format: physicochemical; conditions: HCl or NaOH solution, 2 mg/mL, 37 °C, 24 h, then 1 × MIC for 2 h, CFU; Fig. 3C
# Procedure: Peptide was dissolved in HCl solution or NaOH solution to a final concentration of 2 mg/mL with pH value ranging from 1.0 to 11.0, and incubated at 37 °C for 24 h[64]. […] The diluted aliquots were seeded at MH agar plates and the CFU were scored after 24 h incubation at 37 °C. The number of CFU grown out of MH broth without peptide was served as control.
# [5] = test system: Raw264.7 cells; assay: LPS-induced iNOS, cytokine and chemokine transcription (q-PCR); format: cell-based, Murine; conditions: LPS 100 ng/mL, 6 h, q-PCR normalized to GAPDH; Fig. 6
# Procedure: Murine macrophage Raw264.7 cells (3 × 10^5/well) were treated with series concentrations of hybrid peptides and LPS (100 ng/mL) for 6 h. Total RNA was isolated using RNAiso Plus kit (Takara) and synthesized into cDNA with PrimeScript Reverse Transcriptase (Takara). The cDNA was assessed by q-PCR using SYBR green master mix kit (Takara) on a Realplex Mastercycler (Eppendorf, Germany). Gene expression was calculated after being normalized to those of GAPDH levels by Δ Δ Ct method27. The accuracy of the amplification reactions was achieved by melt curve analysis.
# [6] = test system: established C. albicans biofilm; assay: Biofilm disruption assay, established biofilm (XTT, PI/SYBR Green I); format: cell-based
# Procedure: TIH3F that has the best antifungal activity among the four peptides was chosen to examine the effect on the C. albicans biofilm formation and the established biofilm using previously described method with minor modifications. In the biofilm inhibition assay, after the incubation at 35 °C, C. Albicans was diluted to 1 × 10^6 CFU/mL in RPMI-1640 medium. Then 2 mL culture was added to each well of 6-well plates with coverslips at the bottom, and incubated at 35 °C in a humid chamber for 3 h. Non-adherent cells were then washed away by PBS, and series concentrations of TIH3F (0, 1, 2, 4 μg/mL) were added into the plate, with amphotericin B as control. The formation of the biofilm was determined by the XTT Cell Proliferation and Cytotoxicity Kit (KeyGEN BioTECH, Nanjing, China) after 36-h incubation. In the biofilm disruption assay, the biofilm was preformed as described above but with a longer incubation time up to 72 h. Then TIH3F and amphotericin B of series concentrations (0, 2.5, 5, 10, 25, 50 μg/mL) was added after non-adherent cells were washed out. The measurement of remaining biofilm was then determined. In order to further confirm the antifungal effect of TIH3F against C. albicans encased in biofilms, the established biofilm was treated with TIH3F (0, 5, 50 μg/mL), washed three times with PBS, and finally stained with 1 mL 1000-fold diluted PI/SYBR Green I at 30 °C in the dark for 20 min. After washing with PBS, the plate was immediately photographed with fluorescence microscope.
# [7] = biological target: trypsin; assay: Trypsin inhibition assay (NBLAN hydrolysis, Dixon method); format: biochemical; conditions: 50 mM Tris–HCl pH 7.8, trypsin 0.1 mg/mL, 5 min pre-incubation at 37 °C, substrate NBLAN 48, 96, 192 μg/mL, 405 nm
# Method in brief: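 Trypsin (0.1 mg/mL final) pre-incubated 5 min at 37 °C with hybrid peptide at […] final, in 50 mM Tris–HCl, pH 7.8, at room temperature. Reaction started with NBLAN at 48, 96 or 192 μg/mL final; p-nitroaniline monitored continuously at 405 nm. Ki determined by the Dixon method.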
# [8] = test system: E. coli ATCC25922; assay: Salt stability of antimicrobial activity; format: cell-based; conditions: 1 × MIC, Fig. 3A
# Procedure: To determine the effect of salt on the antimicrobial activity of the parental and hybrid peptides, the bacteria colonies survived 1 × MIC of peptide in the presence of salt were counted. Briefly, E. coli ATCC25922 were diluted into decent concentration and mixed with each kind of peptide solution of 1 × MIC supplemented with NaCl (0, 50, 100, 150, 200 and 400 mM), respectively. […] The salt stability of the peptides was assessed by the number of colonies.
smiles,measurement,setting,value
CC[C@H](C)[C@@H]1NC(=O)[C@H](CO)NC(=O)[C@H](CCCCN)NC(=O)[C@H]([C@@H](C)O)NC(=O)[C@H](Cc2c[nH]c3ccccc23)NC(=O)[C@@H](N)CSSC[C@@H](C(=O)N[C@@H](CCCCN)C(=O)N[C@@H](Cc2ccccc2)C(=O)N[C@@H](Cc2ccccc2)C(=O)N[C@@H](CCCCN)C(=O)N[C@@H](CCCNC(=N)N)C(=O)N[C@@H](Cc2ccccc2)C(=O)N[C@@H](Cc2ccccc2)C(=O)N[C@@H](CCCCN)C(=O)N[C@@H](CO)C(=O)N[C@@H](Cc2ccccc2)C(=O)N[C@@H](CCCNC(=N)N)C(=O)N[C@@H](CCCNC(=N)N)C(=O)N[C@@H](C)C(=O)N[C@@H](Cc2ccccc2)C(=O)N[C@@H](CCCCN)C(=O)N[C@@H](CCCCN)C(=O)N[C@@H](Cc2ccccc2)C(N)=O)NC(=O)[C@@H]2CCCN2C(=O)[C@H](CCCCN)NC(=O)[C@@H]2CCCN2C(=O)[C@@H]2CCCN2C1=O [TIH3F] (H-CWTKSIPPKPCKFFKRFFKSFRRAFKKF-NH2; disulfide 1-11),RP-HPLC absorbance of the peptide before trypsin incubation,"[1]; pure peptide, 0 h, C18 RP-HPLC, Fig. 4E",600 mAU
same,degradation by trypsin,"[1]; trypsin, 300:1, 0.1 M NH4HCO3 pH 8.2, 37 °C, 6 h, RP-HPLC, Fig. 4",a little degradation
same,intact peptide remaining after trypsin incubation,"[1]; trypsin, 300:1, 0.1 M NH4HCO3 pH 8.2, 37 °C, up to 24 hours, RP-HPLC, Fig. 4",remained half
same,RP-HPLC absorbance of the peptide after trypsin incubation,"[1]; trypsin, peptide:protease 300:1, 0.1 M NH4HCO3 pH 8.2, 37 °C, 6 h, C18 RP-HPLC, Fig. 4F",500 mAU
same,antimicrobial activity after treatment with trypsin or proteinase K,[2],negligible antimicrobial activity decrease
same,antimicrobial activity after incubation at 37 °C,[3],maintained its potent antimicrobial activity
same,antimicrobial activity against E. coli after incubation at pH 1.0–11.0,[4],unaffected
same,"LPS-induced mRNA of iNOS, TNF-α, IL-1β, IL-6, MCP-1",[5],strongest inhibitory effect
same,damage of established C. albicans biofilm,"[6]; 5 μg/mL, biofilm preformed 72 h, XTT metabolic activity, Fig. 2B",50%
same,killing of C. albicans in preformed biofilm,"[6]; 50 μg/mL, PI/SYBR Green I staining, fluorescence microscopy, Fig. 2C",destroy all of the cell membranes
same,Ki,[7],1500 nM
same,antimicrobial activity (kill %) in presence of salt,"[8]; 50 mM NaCl, colony counting",not affected
same,kill (%) in presence of salt,[8]; NaCl increased from 100 mM up to 200 mM,declined by half
same,killing effect in presence of salt,[8]; NaCl raised from 100 mM to 400 mM,decreased by half

# — PMC5453931, “Cathelicidin-trypsin inhibitor loop conjugate represents a promising antibiotic candidate with protease stability” (Scientific Reports, 2017)
